Experimental data: patent US7855228B2, “Antibiotics targeting MreB” (The Board of Trustees of the Leland Stamford Junior …, priority 2005, dated 2010)
In brackets after ≈: the same amount, converted by molar mass. Where two headings read alike, the source gives them in different places.

Columns and labels:
[1] = test system: E. coli JA221, JST975; assay: Cell shapes of A22-resistant mutant JA221 and parent JST975; type: cell-based; conditions: 10 μg/ml A22
Description: FIG. 9. Effects of A22 and mecillinam on cell shapes of the A22-resistant mutant JA221. Exponentially growing cells of the A22-resistant mutant strain JA221 and the parent strain JST975 were treated with 1 μg/ml mecillinam or 10 μg/ml A22 for 2 h at 37° C. Differential interference contrast microphotographs are shown.
After prolonged (9 days) incubation of the JST975 assay plates, several isolated colonies that grew up within the clear growth inhibitory zones were purified on L plates and their A22-sensitivity was examined.

[2] = target: T1, MreB (Caulobacter vibrioides, UniProt A0A0H3C7V4); assay: Chromatin immunoprecipitation with anti-MreB; type: cell-based, Caulobacter crescentus; conditions: in the presence of A22
T1 construct: endogenous in cells; host or cells: Caulobacter crescentus cells (formaldehyde-crosslinked extracts)
Excerpt: MreB Associates with Origin-Proximal Loci. The specific inhibition of origin movement by A22 raises the possibility that the duplicated origin moves to the opposite pole through a specific physical association with MreB, much as eukaryotic centromeres are segregated by association with microtubules. We sought to detect such an association in vivo by chromatin immunoprecipitation (ChIP). Following previously established protocols, Caulobacter extracts were ChIP'ed with polyclonal antisera raised against purified Caulobacter MreB. PCR was then used to amplify specific segments of the Caulobacter chromosome. […] We detected a faint signal with primers to the dnaA promoter located 6 kb to the right of the origin (FIG. 8), possibly reflecting the fact that dnaA is at the edge of the MreB binding region.
Chromatin Immunoprecipitations. Formaldehyde-crosslinked chromatin immunoprecipitation was performed as described previously. The anti-MreB antibody was raised by cloning the mreB coding sequence into the pET28a vector (Novagen). The resulting His6-tagged MreB was overexpressed in BL21(DE3)/pLysS E. coli and purified using Qiagen Ni2+-NTA agarose as described previously. Two milligrams of purified His6-MreB was used to immunize two rabbits (Josman Laboratories, Napa, Calif.). Oligonucleotide primer sequences for the regions PCR amplified are available upon request.

[3] = target: T2, GFP-MreB (Caulobacter vibrioides, UniProt A0A0H3C7V4, T167A); assay: GFP-MreB localization; type: cell-based, Caulobacter crescentus; conditions: 10 μg/ml; A22-resistant strain
T2 construct: expressed in transfected cells; host or cells: Caulobacter crescentus CB15N derivative, xylose-inducible Pxyl:gfp-mreB
Description: (§1) A22 Rapidly and Reversibly Delocalizes GFP-MreB. During the Caulobacter cell cycle, MreB forms a lengthwise spiral in swarmer cells and stalked cells. It then appears to condense into an increasingly tight ring positioned at the future site of cell division. When cytokinesis initiates, this ring is replaced by a lengthwise spiral, such that upon cell division each daughter cell inherits a fully expanded spiral. […] Since 10 μg/ml of A22 strongly delocalizes GFP-MreB and blocks cell division without completely inhibiting cell growth, we have chosen to focus most of our subsequent A22 studies on this concentration.
(§2) The onset of A22's effect on GFP-MreB is very rapid: within 1 min the GFP-MreB already delocalized (FIG. 4B). A22's effect on GFP-MreB is also rapidly reversible. Diluting the A22 concentration of cells treated with A22 for 1 hr by mounting them on pads lacking A22 leads to a full recovery of MreB localization within 1 min (FIG. 4C). GFP-MreB was monitored in the same cells before, during, and after A22 treatment by timelapse imaging cells in a flow chamber that allows A22 to be washed in and out (FIGS. 4D-4F). […] Cells generally retained a memory of the MreB structure present before A22 treatment (FIGS. […]). Cells with rings recovered rings, cells with spirals recovered spirals, and cells with partially compacted rings recovered partially compacted rings. These findings are consistent with MreB's localization being determined by extrinsic factors regulated by the cell cycle state, rather than an intrinsic MreB localization cycle.
(§3) We constructed a fusion of the most common A22-resistant mreB missense mutation (T158A) to GFP and asked if the cellular organization of this MreB mutant is maintained in 10 μg/ml of A22. This fusion was expressed in the corresponding A22-resistant strain, producing merodiploid cells containing both GFP-tagged and -untagged mutated mreB, but no wild-type mreB. […] Since this mutation in the MreB ATP binding pocket perturbs MreB dynamic localization, nucleotide hydrolysis may play a role in regulating MreB dynamics.
(§4) Microscopy and Timelapse Imaging. All experiments other than the A22 flow-cell analysis were performed by mounting the samples on 1% agarose pads as described, with the appropriate concentration of A22 added to the agarose. The rates of origin-distal locus segregation were determined by inducing PxyI:lacI:cfp expression with 0.03% xylose for 75 min, isolating swarmer cells, and growing the swarmer cells in M2G liquid medium for 50 min. After 50 min, 10 μg/ml of A22 was added to these liquid cultures, they were mounted onto 1% M2G agarose pads containing 10 μg/ml A22, and a phase and CFP fluorescence image was captured every 2 min for 60 min. The images were analyzed by previously described software to determine the average position and rate of movement of the observed foci.
(§5) The A22 flow-cell treatment timelapse images were performed on PxyI:gfp-mreB cells induced for 2 hr with 0.03% xylose. These cells were adhered to polylysine-coated cover slips. The cover slips were then adhered to microscope slides with two parallel strips of double-sided tape (3M), leaving a central channel. An excess of medium containing 0 or 10 μg/ml A22 was pipetted onto one opening of this channel and wicked through by placing a tissue (VWR) on the other end. Images were collected every 30 s.

[4] = target: T3, GFP-MreB (Caulobacter vibrioides, UniProt A0A0H3C7V4); assay: GFP-MreB localization; type: cell-based, Caulobacter crescentus
T3 construct: expressed in transfected cells; host or cells: Caulobacter crescentus CB15N derivative, xylose-inducible Pxyl:gfp-mreB
Description: as §1, §2, §3, §4, §5

[5] = test system: HoIB-GFP; assay: HoIB-GFP (replisome) localization; type: cell-based, Caulobacter crescentus; conditions: 1 hr treatment
Description: To assess the ability of these cells to assemble a replisome at the replication origins, A22 was administered to cells expressing a fusion of GFP to the HoIB subunit of DNA polymerase.

[6] = test system: S. typhimurium NBRC13245; assay: Determination of minimum inhibitory concentration (MIC); type: cell-based, Salmonella typhimurium; conditions: Salmonella enterica, read-out: MIC S. typhimurium
Outline: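 Two-fold serial agar dilution on L agar and also on Mueller Hinton agar (pH 7.3); 10 µl of stationary-phase culture diluted in 0.85% NaCl to 10^6 cells/ml spotted per plate. MIC taken as lowest concentration inhibiting growth.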

T3 sequence (A0A0H3C7V4 whole entry): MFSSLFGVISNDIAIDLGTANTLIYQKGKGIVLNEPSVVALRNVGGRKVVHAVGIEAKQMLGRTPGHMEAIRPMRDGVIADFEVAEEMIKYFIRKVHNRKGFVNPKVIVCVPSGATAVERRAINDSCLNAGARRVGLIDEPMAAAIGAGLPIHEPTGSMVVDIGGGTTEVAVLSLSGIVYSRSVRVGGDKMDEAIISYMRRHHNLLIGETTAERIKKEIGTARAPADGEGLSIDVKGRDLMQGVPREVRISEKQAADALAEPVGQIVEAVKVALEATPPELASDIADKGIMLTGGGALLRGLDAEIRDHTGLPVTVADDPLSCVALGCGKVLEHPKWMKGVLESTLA
T2 sequence (A0A0H3C7V4 whole entry T167A): as the sequence (A0A0H3C7V4 whole entry) above, with T167A counted along it
T1 sequence (A0A0H3C7V4 whole entry): as the sequence (A0A0H3C7V4 whole entry) above

## N=C(N)SCc1ccc(Cl)c(Cl)c1 [Compound 1, S-(3,4-dichlorobenzyl)isothiourea]
[1]
  Cell shape of parent strain JST975: formed spherical cells
  Cell shape of resistant mutant JA221: grew as rods
[2]
  Origin coimmunoprecipitation with MreB: significantly reduced, though not abolished
[3]
  Localization of mutated (T158A) GFP-MreB: completely unaffected
[4]; 1 μg/ml or less
  GFP-MreB localization (puncta and bands): largely maintained
[4]; 10 μg/ml
  Onset of GFP-MreB delocalization: ≤ 1 min
[4]; 10 or 100 μg/ml
  GFP-MreB localization: completely disrupted this GFP-MreB localization
[4]; cells treated 1 hr, mounted on pads lacking A22
  Full recovery of MreB localization after diluting A22: ≤ 1 min
[5]
  HoIB-GFP localization: no effect on HoIB-GFP localization
[6]; Example 2, methods as in Example 1
  MIC: 3.13 mg/L (≈ 13.3 µM)
[6]; Table 1, NBRC13245
  MIC: 3.13 mg/L (≈ 13.3 µM)
